Laboratory results from US7935722B2 (Eli Lilly and Company, priority 2005, dated 2011).
Like-named read-outs stand apart in the source and are kept apart here.

What was measured:
[1] = target: T1, human AR (androgen receptor) (Homo sapiens, UniProt P10275); test: Steroid hormone nuclear receptor binding assay, AR binding
T1 construct: expressed in transfected cells; host or cells: 293 cells (293-AR lysate)
T1 sequence (P10275 1-920): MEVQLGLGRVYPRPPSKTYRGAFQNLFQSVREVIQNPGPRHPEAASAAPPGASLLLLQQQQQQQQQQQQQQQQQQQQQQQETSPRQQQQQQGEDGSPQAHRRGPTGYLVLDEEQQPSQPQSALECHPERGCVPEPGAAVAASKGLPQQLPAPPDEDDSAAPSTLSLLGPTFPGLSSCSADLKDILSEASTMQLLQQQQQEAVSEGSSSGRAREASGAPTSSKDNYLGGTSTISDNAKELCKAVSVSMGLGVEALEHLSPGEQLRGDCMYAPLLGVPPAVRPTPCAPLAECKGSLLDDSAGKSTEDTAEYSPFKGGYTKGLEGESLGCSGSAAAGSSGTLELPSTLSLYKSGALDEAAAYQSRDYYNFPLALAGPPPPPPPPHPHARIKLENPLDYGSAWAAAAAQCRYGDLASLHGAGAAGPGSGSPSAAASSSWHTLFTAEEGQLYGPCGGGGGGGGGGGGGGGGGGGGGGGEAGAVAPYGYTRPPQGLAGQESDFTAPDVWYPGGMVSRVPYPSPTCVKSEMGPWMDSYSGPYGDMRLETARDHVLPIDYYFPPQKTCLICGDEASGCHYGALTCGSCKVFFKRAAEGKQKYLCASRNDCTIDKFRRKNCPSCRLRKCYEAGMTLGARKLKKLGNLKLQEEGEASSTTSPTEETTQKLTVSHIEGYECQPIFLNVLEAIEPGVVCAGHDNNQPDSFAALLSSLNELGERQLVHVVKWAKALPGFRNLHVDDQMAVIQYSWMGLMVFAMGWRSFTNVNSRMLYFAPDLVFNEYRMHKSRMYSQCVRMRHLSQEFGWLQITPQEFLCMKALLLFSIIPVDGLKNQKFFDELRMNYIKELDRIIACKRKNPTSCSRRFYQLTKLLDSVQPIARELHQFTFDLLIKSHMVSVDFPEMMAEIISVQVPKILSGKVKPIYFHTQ
Outline: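 Competition binding with lysates of 293 cells overexpressing human AR, [3H]-methyltrienolone tracer, compounds from about 0.01 nM to 10 μM, overnight at 4 °C; non-specific binding set with 500 nM methyltrienolone. Bound tracer counted by scintillation after charcoal-dextran separation; IC50 converted to Ki by Cheng-Prusoff using Kd from saturation binding.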

[2] = target: T2, human androgen receptor (AR) (Homo sapiens, UniProt P10275); test: C2C12 AR/ARE reporter assay; format: cell-based
T2 construct: expressed in transfected cells; host or cells: mouse myoblast C2C12 cells, transiently co-transfected
T2 sequence (P10275 1-920): T1 sequence (P10275 1-920)
Outline: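 Mouse C2C12 myoblasts co-transfected with AR/ARE reporter were plated in charcoal-stripped serum and treated for 48 h with compound from about 0.01 nM to 10 μM. Luciferase activity gave EC50 by 4-parameter logistic fit. Efficacy is expressed as % of maximal stimulation by 10 nM methyltrienolone.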

[3] = C2C12, read-out: C2C12 % Efficacy
[4] = average of n trials, read-out: AR binding Ki
[5] = C2C12 AR/ARE reporter assay, average of n trials, read-out: C2C12 % Efficacy
[6] = C2C12 AR/ARE reporter assay, average of n trials, read-out: C2C12 EC50

| SMILES | Ki [1] [µM] | EC50 [2] [µM] | Emax [2, 3] [%] | melting point | Ki [1, 4] [µM] | Emax [2, 5] [%] | EC50 [2, 6] [µM] |
| --- | --- | --- | --- | --- | --- | --- | --- |
| CC(C)C(=O)NC1CCc2c(c3cc4c(cc3n2Cc2cccc(F)c2)OCO4)C1 (stereo not shown) [Example 98, N-[9-(3-Fluoro-benzyl)-6,7,8,9-tetrahydro-5H-1,3-dioxa-9-aza-cyclopenta[b]fluoren-6-yl]-isobutyramide] | 0.007 | 0.0408 | 104 | 250 to 255 °C |  |  |  |
| COc1ccc2c(c1)c1c(n2Cc2ccccc2)CCC(NC(C)=O)C1 (stereo not shown) [Example 65, N-(9-Benzyl-6-methoxy-2,3-4,9-tetrahydro-1H-carbazol-3-yl)-acetamide] |  |  |  | 184 to 185 °C | 0.0584 | 87.3 | 0.0405 |
| CC(C)C(=O)NC1CCc2c(c3cc(S(C)(=O)=O)ccc3n2Cc2cccc(F)c2)C1 (stereo not shown) [Example 53] | 0.0216 | 0.0243 | 107 | 205 to 207 °C |  |  |  |
| COc1ccc(Cn2c3c(c4cc(Cl)ccc42)CC(NC(=O)C(C)C)CC3)cc1 (stereo not shown) [Example 27] | 0.0458 |  | 23.2 | 182 to 184 °C |  |  |  |
| CC(C)C(=O)NC1CCc2c(c3cc(-c4nnc(N)s4)ccc3n2Cc2cccc(F)c2)C1 (stereo not shown) [Example 125, N-[6-(5-Amino[1,3,4]thiadiazol-2-yl)-9-(3-fluorobenzyl)-2,3,4,9-tetrahydro-1H-carbazol-3-yl]isobutyramide] | 0.0551 | 0.0685 | 75.8 | 251 to 254 °C |  |  |  |
| Cc1ccc2c(c1)c1c(n2Cc2ccccc2F)CCC(NC(=O)C(C)C)C1 (stereo not shown) [Example 43] | 0.104 | 0.462 | 69.6 | 174 to 176 °C |  |  |  |
| CC(C)C(=O)NC1CCc2c(c3cc(C#N)ccc3n2Cc2ccccc2C(F)(F)F)C1 (stereo not shown) [Example 96, N-[6-Cyano-9-(2-trifluoromethyl-benzyl)-2,3,4,9-tetrahydro-1H-carbazol-3-yl]-isobutyramide] | 0.0147 | 0.123 | 88 | 222 to 225 °C |  |  |  |
| Cc1ccc2c(c1)c1c(n2Cc2ccccc2C#N)CCC(NC(=O)C(C)C)C1 (stereo not shown) [Example 46] | 0.137 |  | 40.5 | 218 to 220 °C |  |  |  |
| CC(C)C(=O)NC1CCc2c(c3cc(Cl)ccc3n2Cc2ccc(Cl)cc2)C1 (stereo not shown) [Example 26] | 0.0166 | 0.301 | 33 | 176 to 178 °C |  |  |  |
| CC(C)C(=O)NC1CCc2c(c3cccc(Cl)c3n2Cc2cccc(F)c2)C1 (stereo not shown) [Example 57] | 0.0251 | 0.323 | 36.5 | 205 to 207 °C |  |  |  |
| CCOC(=O)Nc1ccc2c(c1)c1c(n2Cc2cccc(F)c2)CC[C@@H](NC(=O)C(C)C)C1 [Example 189, (R)-[9-(3-Fluoro-benzyl)-6-isobutyrylamino-6,7,8,9-tetrahydro-5H-carbazol-3-yl]-carbamic acid ethyl ester] |  |  |  | 169 to 171 °C | 0.0083 | 52.9 | 0.0012 |
| CC(C)C(=O)NC1CCc2c(c3cc(F)ccc3n2Cc2ccc(Cl)cc2)C1 (stereo not shown) [Example 13] | 0.0335 | 1.03 | 55.5 | 188 to 190 °C |  |  |  |
| CC(C)C(=O)N[C@H]1CCc2c(c3cc(C#N)ccc3n2Cc2cccc(F)c2)C1 [Example 124, (S)-N-(6-Cyano-9-(3-fluorobenzyl)-2,3,4,9-tetrahydro-1H-carbazol-3-yl)isobutyramide] | 0.195 | 1.11 | 49.9 | 223 to 225 °C |  |  |  |
| CO/N=C/c1ccc2c(c1)c1c(n2Cc2cccc(F)n2)CC[C@@H](NC(=O)C2CC2)C1 [Example 209] | 0.0078 | 0.0011 | 95.7 | 223 to 225 °C |  |  |  |
| CO/N=C/c1ccc2c(c1)c1c(n2Cc2cccc(F)c2)CC[C@@H](NC(=O)C2CC2)C1 [Example 205, (R)-Cyclopropanecarboxylic acid[9-(3-fluoro-benzyl)-6-(1-methoxyimino-methyl)-2,3,4,9-tetrahydro-1H-carbazol-3-yl]-amide] | 0.003 | 0.0005 | 88.4 | 200 to 203 °C |  |  |  |
| CC(C)C(=O)NC1CCc2c(c3cc(Br)ccc3n2Cc2cccc(C#N)c2)C1 (stereo not shown) [Example 38] | 0.0097 | 0.108 | 79.5 | 228 to 230 °C |  |  |  |
| CC(C)C(=O)NC1CCc2c(c3cc(C#N)ccc3n2Cc2ccc(F)cn2)C1 (stereo not shown) [Example 181, N-[6-Cyano-9-(5-fluoro-pyridin-2-ylmethyl)-2,3,4,9-tetrahydro-1H-carbazol-3-yl]-isobutyramide] | 0.0346 | 0.0878 | 93.5 | 235 to 238 °C (dec.) |  |  |  |
| CC(C)C(=O)NC1CCc2c(c3cc(Br)ccc3n2Cc2cccc(Cl)c2)C1 (stereo not shown) [Example 36] | 0.0076 | 0.0207 | 99.4 | 186 to 188 °C |  |  |  |
| CC(C)C(=O)NC1CCc2c(c3cc(F)ccc3n2Cc2cccc(C#N)c2)C1 (stereo not shown) [Example 11] | 0.0615 | 2.18 | 36.3 | 184 to 186 °C |  |  |  |
| CC(C)C(=O)N[C@@H]1CCc2c(c3cc(C#N)ccc3n2Cc2cccc(F)c2)C1 (single isomer, unassigned) [Example 123] | 0.001 | 0.0018 | 87 | 223 to 225 °C |  |  |  |
| CC(C)C(=O)NC1CCc2c(c3cc(F)ccc3n2Cc2ccccc2C#N)C1 (stereo not shown) [Example 7] | 0.0996 |  | 35.8 | 164 to 167 °C |  |  |  |
| COc1ccccc1Cn1c2c(c3cc(F)ccc31)CC(NC(=O)C(C)C)CC2 (stereo not shown) [Example 6] | 0.156 | 1.77 | 49.7 | 196 to 198 °C |  |  |  |
| N#Cc1ccc2c(c1)c1c(n2Cc2cccc(F)n2)CC[C@@H](NC(=O)C2CC2)C1 [Example 195, Cyclopropanecarboxylic acid[6-cyano-9-(6-fluoro-pyridin-2-ylmethyl)-2,3,4,9-tetrahydro-1H-carbazol-3-yl]-amide] | 0.0043 | 0.0027 | 96.5 | 243 to 245 °C |  |  |  |
| CC(C)C(=O)NC1CCc2c(c3cc(-c4ccccn4)ccc3n2Cc2cccc(F)c2)C1 (stereo not shown) [Example 131, N-[9-(3-Fluorobenzyl)-6-pyridin-2-yl-2,3,4,9-tetrahydro-1H-carbazol-3-yl]isobutyramide] | 0.118 | 0.0652 | 91.3 | 228 to 230 °C |  |  |  |
| CC(C)C(=O)NC1CCc2c(c3cc(F)ccc3n2Cc2ccccc2Cl)C1 (stereo not shown) [Example 5] | 0.0246 |  | 80.3 | 155 to 157 °C |  |  |  |
| CO/N=C/c1ccc2c(c1)c1c(n2Cc2cccc(F)c2)CCC(NC(=O)C(C)C)C1 (stereo not shown) [Example 199, N-[9-(3-Fluoro-benzyl)-6-(methoxyimino-methyl)-2,3,4,9-tetrahydro-1H-carbazol-3-yl]-isobutyramide] |  |  |  | 180 to 182 °C | 0.0066 | 83.6 | 0.0018 |
| CC(C)C(=O)NC1CCc2c(c3ccccc3n2Cc2cccc(F)c2)C1 (stereo not shown) [Example 3] | 0.0101 | 0.194 | 66.4 | 170 to 172 °C |  |  |  |
| CC(C)C(=O)NC1CCc2c(c3cc(C(N)=O)ccc3n2Cc2cccc(F)c2)C1 (stereo not shown) [Example 63, 9-(3-Fluorobenzyl)-6-isobutyrylamino-6,7,8,9-tetrahydro-5H-carbazole-3-carboxylic acid amide] | 0.0393 | 0.0669 | 113 | 192 to 194 °C |  |  |  |
| CC(C)C(=O)NC1CCc2c(c3cc4c(cc3n2Cc2cccc(F)c2)OC(F)(F)O4)C1 (stereo not shown) [Example 99, N-[2,2-Difluoro-9-(3-fluoro-benzyl)-6,7,8,9-tetrahydro-5H-1,3-dioxa-9-aza-cyclopenta[b]fluoren-6-yl]-isobutyramide] | 0.0062 | 0.0094 | 69 | 197 to 199 °C |  |  |  |
